Results published in US20230151049A1, “Compounds Useful in HIV Therapy” (priority 2020, published 2023).
Several values for one entry are separate records, joined by “and”; a condition that tells them apart may be missing. Equal values may be shown once. Read-outs that look alike come from different tables or passages of the source.

Assay: EFdA Rat PK Studies (subcutaneous and intramuscular groups), plasma concentration by LC-MS/MS
Assay type: in vivo, Wistar Han rats
Settings: for Assayed Concentrations of EFdA, individual rats / Assayed Concentrations of EFdA, Mean / concentration at 0.5 h / concentration at 1 h / concentration at 4 h / concentration at 7 h / concentration at 24 h / concentration at 48 h / concentration at 72 h / concentration at 6 day / concentration at 25 day: plasma; for concentration at 0.5 h / concentration at 1 h / concentration at 4 h / concentration at 7 h / concentration at 24 h / concentration at 48 h / concentration at 72 h / concentration at 6 day / concentration at 25 day: male, Wistar Han, rat
Excerpt: Protocol for EFdA Rat PK Studies Conducted at Charles River Laboratories, NY.
A total of seven naïve male Wistar Han rats, 200-250 g, were received from Charles River Laboratories, Kingston, N.Y. All animals were received from the supplier equipped with a surgically-implanted jugular vein catheter (JVC) for blood sample collection. Following an acclimation period, the animals were assigned to the study based on acceptable health as determined by a staff veterinarian and catheter patency. Animals were placed into two groups of 3 rats per group. Fasting of the animals before or after dosing was not required.
On Day 1 each animal in Group 1 received a single subcutaneous injection of prepared test article at a target dose level of 20 mg/kg and at a dose volume of 0.33 mL/kg. Each animal in Group 2 received a single intramuscular injection of prepared test article into a thigh muscle at a target dose level of 20 mg/kg and at a dose volume of 0.33 mL/kg. The injection sites were shaved prior to dosing and identified with an indelible marker for daily monitoring during the study. The animals were manually restrained for dosing and were not sedated. The dose suspension was mixed well by inversion before each dose to ensure homogeneity. All dosing was performed as detailed in the study protocol and was completed without incident. […] In addition, all animals are monitored twice daily by the veterinary staff for clinical abnormalities.
Blood samples were collected from the study animals as detailed in the sample collection Table 2 below.
Each blood sample for PK (250 μL) was collected from the jugular vein catheter or by venipuncture of a jugular vein. The blood was transferred to a tube containing NaF/Na2EDTA anticoagulant and inverted several times to mix. The blood samples were maintained on crushed ice before centrifugation at 2200×g for 10 minutes at 5° C. to isolate plasma. The resulting plasma samples were transferred to individual polypropylene tubes in a 96-well plate format and immediately placed on dry ice until storage at nominally −80° C. prior to analysis.
The PK plasma samples were analyzed by the Testing Facility to determine the concentration of EFdA using an LC-MS/MS Research Grade Assay (RGA-1) with sensitivity to 0.1 ng/mL. Following review of sample analysis data through Day 29, further sample analysis was discontinued and the study was terminated. The individual and mean plasma concentration-time data are presented in Tables 3 and 4 and mean concentration-time profiles are shown in FIGS. 1 and 2.

- Assayed Concentrations of EFdA, individual rats (0.5 hr, IM 20 mg/kg): 1150 ng/mL and 684 ng/mL
- Assayed Concentrations of EFdA, individual rats (0.5 hr, SC 20 mg/kg, 20 mg/kg): 1000 ng/mL and 640 ng/mL and 2210 ng/mL
- Assayed Concentrations of EFdA, individual rats (1 hr, IM 20 mg/kg): 1640 ng/mL and 1400 ng/mL
- Assayed Concentrations of EFdA, individual rats (1 hr, SC 20 mg/kg, 20 mg/kg): 1160 ng/mL and 1040 ng/mL and 3030 ng/mL
- Assayed Concentrations of EFdA, individual rats (4 hr, IM 20 mg/kg): 436 ng/mL and 733 ng/mL
- Assayed Concentrations of EFdA, individual rats (4 hr, SC 20 mg/kg, 20 mg/kg): 676 ng/mL and 708 ng/mL
- Assayed Concentrations of EFdA, individual rats (7 hr, IM 20 mg/kg): 241 ng/mL and 191 ng/mL and 426 ng/mL
- Assayed Concentrations of EFdA, individual rats (7 hr, SC 20 mg/kg, 20 mg/kg): 372 ng/mL and 216 ng/mL
- Assayed Concentrations of EFdA, individual rats (24 hr, IM 20 mg/kg): 24.7 ng/mL and 1.96 ng/mL and 32.6 ng/mL
- Assayed Concentrations of EFdA, individual rats (24 hr, SC 20 mg/kg, 20 mg/kg): 6.70 ng/mL and 14.7 ng/mL and 2.53 ng/mL
- Assayed Concentrations of EFdA, individual rats (48 hr, SC 20 mg/kg, 20 mg/kg): 0.713 ng/mL and 0.543 ng/mL
- Assayed Concentrations of EFdA, individual rats (72 hr, IM 20 mg/kg): 0.316 ng/mL and 0.241 ng/mL
- Assayed Concentrations of EFdA, individual rats (72 hr, SC 20 mg/kg, 20 mg/kg): 0.270 ng/mL and 0.201 ng/mL
- concentration at 0.5 h (intramuscular, 20 mg/kg, 0.5 hr, IM 20 mg/kg, read-out: Assayed Concentrations of EFdA, Mean): 921 ng/mL
- concentration at 0.5 h (intramuscular, 20 mg/kg, 0.5 hr, IM 20 mg/kg, read-out: Assayed Concentrations of EFdA, individual rats): 929 ng/mL
- concentration at 1 h (intramuscular, 20 mg/kg, 1 hr, IM 20 mg/kg, read-out: Assayed Concentrations of EFdA, Mean): 1330 ng/mL
- concentration at 1 h (intramuscular, 20 mg/kg, 1 hr, IM 20 mg/kg, read-out: Assayed Concentrations of EFdA, individual rats): 957 ng/mL
- concentration at 4 h (intramuscular, 20 mg/kg, 4 hr, IM 20 mg/kg, read-out: Assayed Concentrations of EFdA, Mean): 610 ng/mL
- concentration at 4 h (intramuscular, 20 mg/kg, 4 hr, IM 20 mg/kg, read-out: Assayed Concentrations of EFdA, individual rats): 662 ng/mL
- concentration at 7 h (intramuscular, 20 mg/kg, 7 hr, IM 20 mg/kg, read-out: Assayed Concentrations of EFdA, Mean): 286 ng/mL
- concentration at 24 h (intramuscular, 20 mg/kg, 24 hr, IM 20 mg/kg, read-out: Assayed Concentrations of EFdA, Mean): 19.8 ng/mL
- concentration at 48 h (intramuscular, 20 mg/kg, 48 hr, IM 20 mg/kg, read-out: Assayed Concentrations of EFdA, Mean): 2.18 ng/mL
- concentration at 72 h (intramuscular, 20 mg/kg, 72 hr, IM 20 mg/kg, read-out: Assayed Concentrations of EFdA, Mean): 0.29 ng/mL
- concentration at 72 h (intramuscular, 20 mg/kg, 72 hr, IM 20 mg/kg, read-out: Assayed Concentrations of EFdA, individual rats): 0.301 ng/mL
- concentration at 6 day (intramuscular, 20 mg/kg, Day 6, IM 20 mg/kg, read-out: Assayed Concentrations of EFdA, Mean): 0.1 ng/mL
- concentration at 6 day (intramuscular, 20 mg/kg, Day 6, IM 20 mg/kg, read-out: Assayed Concentrations of EFdA, individual rats): 0.102 ng/mL
- concentration at 0.5 h (sc, 20 mg/kg, 0.5 hr, SC 20 mg/kg, read-out: Assayed Concentrations of EFdA, Mean): 1280 ng/mL
- concentration at 1 h (sc, 20 mg/kg, 1 hr, SC 20 mg/kg, read-out: Assayed Concentrations of EFdA, Mean): 1430 ng/mL
- concentration at 4 h (sc, 20 mg/kg, 4 hr, SC 20 mg/kg, read-out: Assayed Concentrations of EFdA, Mean): 639 ng/mL
- concentration at 4 h (sc, 20 mg/kg, 4 hr, SC 20 mg/kg, read-out: Assayed Concentrations of EFdA, individual rats): 534 ng/mL
- concentration at 7 h (sc, 20 mg/kg, 7 hr, SC 20 mg/kg, read-out: Assayed Concentrations of EFdA, Mean): 303 ng/mL
- concentration at 7 h (sc, 20 mg/kg, 7 hr, SC 20 mg/kg, read-out: Assayed Concentrations of EFdA, individual rats): 320 ng/mL
- concentration at 24 h (sc, 20 mg/kg, 24 hr, SC 20 mg/kg, read-out: Assayed Concentrations of EFdA, Mean): 7.98 ng/mL
- concentration at 48 h (sc, 20 mg/kg, 48 hr, SC 20 mg/kg, read-out: Assayed Concentrations of EFdA, Mean): 0.68 ng/mL
- concentration at 48 h (sc, 20 mg/kg, 48 hr, SC 20 mg/kg, read-out: Assayed Concentrations of EFdA, individual rats): 0.771 ng/mL
- concentration at 72 h (sc, 20 mg/kg, 72 hr, SC 20 mg/kg, read-out: Assayed Concentrations of EFdA, Mean): 0.241 ng/mL
- concentration at 72 h (sc, 20 mg/kg, 72 hr, SC 20 mg/kg, read-out: Assayed Concentrations of EFdA, individual rats): 0.251 ng/mL
- concentration at 6 day (sc, 20 mg/kg, Day 6, SC 20 mg/kg, read-out: Assayed Concentrations of EFdA, Mean): 0.04 ng/mL
- concentration at 6 day (sc, 20 mg/kg, Day 6, SC 20 mg/kg, read-out: Assayed Concentrations of EFdA, individual rats): 0.117 ng/mL
- concentration at 25 day (sc, 20 mg/kg, Day 25, SC 20 mg/kg, read-out: Assayed Concentrations of EFdA, Mean): 0.221 ng/mL
- concentration at 25 day (sc, 20 mg/kg, Day 25, SC 20 mg/kg, read-out: Assayed Concentrations of EFdA, individual rats): 0.221 ng/mL
- detectable duration of exposure of EFdA (rat IM and SC administration of 20 mg/kg): less than 8 days
Structure (SMILES): C#C[C@]1(CO)O[C@@H](n2cnc3c(N)nc(F)nc32)C[C@@H]1O [EFdA, (2R,3S,5R)-5-(6-amino-2-fluoro-9H-purin-9-yl)-2-ethynyl-2-(hydroxymethyl)tetrahydrofuran-3-ol]
- Assayed Concentrations of EFdA, individual rats (48 hr, IM 20 mg/kg): 5.25 ng/mL and 0.369 ng/mL and 0.915 ng/mL
- Assayed Concentrations of EFdA, individual rats (Day 6, IM 20 mg/kg): BQL (BQL—Below Quantitation Limit, <0.100 ng/mL) and 0.103 ng/mL
- Assayed Concentrations of EFdA, individual rats (Day 6, SC 20 mg/kg, 20 mg/kg): BQL (BQL—Below Quantitation Limit, <0.100 ng/mL)
- Assayed Concentrations of EFdA, Mean (Day 8, IM 20 mg/kg): BQL (BQL—Below Quantitation Limit, <0.100 ng/mL)
- Assayed Concentrations of EFdA, individual rats (Day 8, IM 20 mg/kg): BQL (BQL—Below Quantitation Limit, <0.100 ng/mL)
- Assayed Concentrations of EFdA, Mean (Day 8, SC 20 mg/kg): BQL (BQL—Below Quantitation Limit, <0.100 ng/mL)
- Assayed Concentrations of EFdA, individual rats (Day 8, SC 20 mg/kg): BQL (BQL—Below Quantitation Limit, <0.100 ng/mL)
- Assayed Concentrations of EFdA, Mean (Day 11, IM 20 mg/kg): BQL (BQL—Below Quantitation Limit, <0.100 ng/mL)
- Assayed Concentrations of EFdA, individual rats (Day 11, IM 20 mg/kg): BQL (BQL—Below Quantitation Limit, <0.100 ng/mL)
- Assayed Concentrations of EFdA, Mean (Day 11, SC 20 mg/kg): BQL (BQL—Below Quantitation Limit, <0.100 ng/mL)
- Assayed Concentrations of EFdA, individual rats (Day 11, SC 20 mg/kg): BQL (BQL—Below Quantitation Limit, <0.100 ng/mL)
- Assayed Concentrations of EFdA, Mean (Day 15, IM 20 mg/kg): BQL (BQL—Below Quantitation Limit, <0.100 ng/mL)
- Assayed Concentrations of EFdA, individual rats (Day 15, IM 20 mg/kg): BQL (BQL—Below Quantitation Limit, <0.100 ng/mL)
- Assayed Concentrations of EFdA, Mean (Day 15, SC 20 mg/kg): BQL (BQL—Below Quantitation Limit, <0.100 ng/mL)
- Assayed Concentrations of EFdA, individual rats (Day 15, SC 20 mg/kg): BQL (BQL—Below Quantitation Limit, <0.100 ng/mL)
- Assayed Concentrations of EFdA, Mean (Day 22, IM 20 mg/kg): BQL (BQL—Below Quantitation Limit, <0.100 ng/mL)
- Assayed Concentrations of EFdA, individual rats (Day 22, IM 20 mg/kg): BQL (BQL—Below Quantitation Limit, <0.100 ng/mL)
- Assayed Concentrations of EFdA, Mean (Day 22, SC 20 mg/kg): BQL (BQL—Below Quantitation Limit, <0.100 ng/mL)
- Assayed Concentrations of EFdA, individual rats (Day 22, SC 20 mg/kg): BQL (BQL—Below Quantitation Limit, <0.100 ng/mL)
- Assayed Concentrations of EFdA, Mean (Day 25, IM 20 mg/kg): BQL (BQL—Below Quantitation Limit, <0.100 ng/mL)
- Assayed Concentrations of EFdA, individual rats (Day 25, IM 20 mg/kg): BQL (BQL—Below Quantitation Limit, <0.100 ng/mL)
- Assayed Concentrations of EFdA, individual rats (Day 25, SC 20 mg/kg, 20 mg/kg): BQL (BQL—Below Quantitation Limit, <0.100 ng/mL)
- Assayed Concentrations of EFdA, Mean (Day 29, IM 20 mg/kg): BQL (BQL—Below Quantitation Limit, <0.100 ng/mL)
- Assayed Concentrations of EFdA, individual rats (Day 29, IM 20 mg/kg): BQL (BQL—Below Quantitation Limit, <0.100 ng/mL)
- Assayed Concentrations of EFdA, Mean (Day 29, SC 20 mg/kg): BQL (BQL—Below Quantitation Limit, <0.100 ng/mL)
- Assayed Concentrations of EFdA, individual rats (Day 29, SC 20 mg/kg): BQL (BQL—Below Quantitation Limit, <0.100 ng/mL)
